Reference: US11254668B2, “Pyrazolo[1,5-A]pyrazin-4-yl and related derivatives” (Pfizer Inc., priority 2017, dated 2022)
Like-named read-outs stand apart in the source and are kept apart here.

Assays:
Assay type in all cases: biochemical
TYK2 = TYK2 (Homo sapiens (Human), UniProt P29597); assay: JAK Caliper Enzyme Assay at 1 mM ATP, TYK2
Outline: (§1)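 First, compound was incubated at room temperature with recombinant human kinase domain, a synthetic peptide and 1 mM ATP until 20–30% of peptide was phosphorylated. Next, EDTA stopped the reaction. Finally, electrophoretic separation quantified product, and percent effect relative to controls was plotted against concentration.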

JAK3 = JAK3 (Homo sapiens (Human), UniProt P52333); assay: JAK Caliper Enzyme Assay at 1 mM ATP, JAK3
Outline: (§2)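 IC50 (nM) derived from percent conversion of fluorescently labelled peptide, measured by Caliper LabChip mobility-shift separation after EDTA stop. Each JAK family kinase domain (human, recombinant) run at 1 mM ATP and room temperature, conditions set to 20-30% product; DMSO wells define uninhibited baseline.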

JAK2 = JAK2 (Homo sapiens (Human), UniProt O60674); assay: JAK Caliper Enzyme Assay at 1 mM ATP, JAK2
Outline: as §1

JAK1 = JAK1 (Homo sapiens (Human), UniProt P23458); assay: JAK Caliper Enzyme Assay at 1 mM ATP, JAK1
Outline: as §2

Chain of JAK1 (P23458 875-1153): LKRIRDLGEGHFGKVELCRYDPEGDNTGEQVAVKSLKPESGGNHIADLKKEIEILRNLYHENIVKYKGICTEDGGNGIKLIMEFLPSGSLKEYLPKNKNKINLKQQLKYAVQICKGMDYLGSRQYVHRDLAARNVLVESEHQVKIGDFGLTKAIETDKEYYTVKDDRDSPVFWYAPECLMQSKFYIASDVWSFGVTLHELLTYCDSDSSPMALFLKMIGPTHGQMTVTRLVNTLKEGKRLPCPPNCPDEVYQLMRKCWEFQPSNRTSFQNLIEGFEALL
Chain of JAK3 (P52333 822-1111): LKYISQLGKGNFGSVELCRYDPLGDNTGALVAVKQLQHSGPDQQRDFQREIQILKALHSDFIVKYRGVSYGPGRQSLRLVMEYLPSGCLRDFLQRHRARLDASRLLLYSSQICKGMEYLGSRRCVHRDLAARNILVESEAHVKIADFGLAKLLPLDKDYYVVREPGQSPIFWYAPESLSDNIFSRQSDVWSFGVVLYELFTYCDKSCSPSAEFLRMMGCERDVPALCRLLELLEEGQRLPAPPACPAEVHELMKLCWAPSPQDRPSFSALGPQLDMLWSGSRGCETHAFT
Chain of TYK2 (P29597 897-1176): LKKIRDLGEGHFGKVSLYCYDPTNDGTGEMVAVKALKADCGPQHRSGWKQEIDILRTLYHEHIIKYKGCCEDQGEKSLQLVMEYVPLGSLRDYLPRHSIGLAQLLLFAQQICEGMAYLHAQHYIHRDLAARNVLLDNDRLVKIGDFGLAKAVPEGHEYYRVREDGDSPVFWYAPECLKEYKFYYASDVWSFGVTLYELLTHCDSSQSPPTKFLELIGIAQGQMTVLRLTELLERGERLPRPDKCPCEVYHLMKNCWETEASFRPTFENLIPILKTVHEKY
Chain of JAK2 (O60674 849-1124): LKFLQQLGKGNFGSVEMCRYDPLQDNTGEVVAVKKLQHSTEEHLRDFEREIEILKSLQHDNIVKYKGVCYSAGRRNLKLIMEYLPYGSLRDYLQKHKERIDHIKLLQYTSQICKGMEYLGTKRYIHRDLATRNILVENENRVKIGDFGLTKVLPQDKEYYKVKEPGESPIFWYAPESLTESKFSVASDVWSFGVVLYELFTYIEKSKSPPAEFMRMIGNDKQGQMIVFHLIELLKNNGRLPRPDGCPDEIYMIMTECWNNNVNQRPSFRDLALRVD

| SMILES | IC50 (TYK2) | IC50 (JAK3) | IC50 (JAK2) | IC50 (JAK1) | IC50 (TYK2; JAK Caliper enzyme assay) | IC50 (JAK3; JAK Caliper enzyme assay) | IC50 (JAK2; JAK Caliper enzyme assay) | IC50 (JAK1; JAK Caliper enzyme assay) |
| --- | --- | --- | --- | --- | --- | --- | --- | --- |
| CNc1cc(-c2cc3ncccc3c(-c3ccn([C@]4(CC#N)C[C@@H](C#N)C4)n3)n2)nn1C [Example 70, trans-3-(cyanomethyl)-3-(3-{7-[1-methyl-5-(methylamino)-1H-pyrazol-3-yl]-1,6-naphthyridin-5-yl}-1H-pyrazol-1-yl)cyclobutanecarbonitrile] | 661 nM | > 10000 nM | 3500 nM | > 10000 nM | – | – | – | – |
| CS(=O)(=O)N1CC(CC#N)(n2ccc(-c3nc(-c4c[nH]c5nccc-5c4)cc4ncccc34)n2)C1 [Example 157, [1-(methylsulfonyl)-3-{3-[7-(7H-pyrrolo[2,3-b]pyridin-5-yl)-1,6-naphthyridin-5-yl]-1H-pyrazol-1-yl}azetidin-3-yl]acetonitrile] | 148 nM | > 10000 nM | 856 nM | 1680 nM | – | – | – | – |
| CS(=O)(=O)N1CC(CC#N)(n2ccc(-c3cc(-c4cn[nH]c4)cc4ncccc34)n2)C1 [Example 284, [1-(methylsulfonyl)-3-{3-[7-(1H-pyrazol-4-yl)quinolin-5-yl]-1H-pyrazol-1-yl}azetidin-3-yl]acetonitrile] | 171 nM | > 10000 nM | 2500 nM | 6830 nM | – | – | – | – |
| N#CCC1(n2ncc(-c3cc(-c4ccc(C(N)=O)cn4)cc4ncccc34)n2)CC(C#N)C1 (stereo not drawn) [Example 351, 6-(5-{2-[trans-3-cyano-1-(cyanomethyl)cyclobutyl]-2H-1,2,3-triazol-4-yl}quinolin-7-yl)pyridine-3-carboxamide] | 131 nM | > 10000 nM | 688 nM | > 10000 nM | – | – | – | – |
| N#CC[C@H]1C[C@](CC#N)(n2ccc(-c3nc(-c4cn[nH]c4)cc4ncccc34)n2)C1 [Example 79, 2,2′-(trans-1-{3-[7-(1H-pyrazol-4-yl)-1,6-naphthyridin-5-yl]-1H-pyrazol-1-yl}cyclobutane-1,3-diyl)diacetonitrile] | 74 nM | > 10000 nM | 774 nM | 1050 nM | – | – | – | – |
| Cn1ncc(-c2cc(-c3cnn([C@]4(CC#N)C[C@@H](C#N)C4)n3)c3cccnc3c2)c1C(N)=O [Example 334, 4-(5-{2-[cis-3-cyano-1-(cyanomethyl)cyclobutyl]-2H-1,2,3-triazol-4-yl}quinolin-7-yl)-1-methyl-1H-pyrazole-5-carboxamide] | 736 nM | > 10000 nM | 4710 nM | > 10000 nM | – | – | – | – |
| CO[C@H]1C[C@@](CC#N)(n2ccc(-c3nc(-c4cnn(C)c4)cc4ncccc34)n2)C1 [Example 110, (cis-3-methoxy-1-{3-[7-(1-methyl-1H-pyrazol-4-yl)-1,6-naphthyridin-5-yl]-1H-pyrazol-1-yl}cyclobutyl)acetonitrile] | 61 nM | > 10000 nM | 558 nM | 4110 nM | – | – | – | – |
| CS(=O)(=O)N1CC(CC#N)(n2ncc(-c3cc(-c4ccc5c(c4)C(=O)NC5)cc4ncccc34)n2)C1 [Example 448, [1-(methylsulfonyl)-3-{4-[7-(3-oxo-2,3-dihydro-1H-isoindol-5-yl)quinolin-5-yl]-2H-1,2,3-triazol-2-yl}azetidin-3-yl]acetonitrile] | – | – | – | – | 257 nM | > 10000 nM | 2680 nM | > 10000 nM |
| CS(=O)(=O)N1CC(CC#N)(n2ncc(-c3cc(-c4cccc(CO)c4)cc4ncccc34)n2)C1 [Example 429, [3-(4-{7-[3-(hydroxymethyl)phenyl]quinolin-5-yl}-2H-1,2,3-triazol-2-yl)-1-(methylsulfonyl)azetidin-3-yl]acetonitrile] | – | – | – | – | 112 nM | > 10000 nM | 1120 nM | 4000 nM |
| CS(=O)(=O)N1CC(CC#N)(n2ncc(-c3cc(-c4cccc(O)c4)cc4ncccc34)n2)C1 [Example 438, [3-{4-[7-(3-hydroxyphenyl)quinolin-5-yl]-2H-1,2,3-triazol-2-yl}-1-(methylsulfonyl)azetidin-3-yl]acetonitrile] | – | – | – | – | 107 nM | > 10000 nM | 1960 nM | 5630 nM |
| N#CC[C@]1(n2cc(-c3cc(-c4cc[nH]n4)cc4nccn34)cn2)C[C@H](C#N)C1 [Example 455, trans-3-(cyanomethyl)-3-{4-[7-(1H-pyrazol-3-yl)imidazo[1,2-a]pyridin-5-yl]-1H-pyrazol-1-yl}cyclobutanecarbonitrile] | – | – | – | – | 319 nM | > 10000 nM | 5680 nM | > 10000 nM |
| CS(=O)(=O)N1CC(CC#N)(n2ncc(-c3cc(-c4cccnc4N)cc4ncccc34)n2)C1 [Example 361, [3-{4-[7-(2-aminopyridin-3-yl)quinolin-5-yl]-2H-1,2,3-triazol-2-yl}-1-(methylsulfonyl)azetidin-3-yl]acetonitrile] | 3630 nM | > 10000 nM | > 10000 nM | > 10000 nM | – | – | – | – |
| Cn1cc(-c2cc(-c3cnn(C4(CC#N)CN(S(C)(=O)=O)C4)n3)c3cccnc3c2)cn1 [Example 323, [3-{4-[7-(1-methyl-1H-pyrazol-4-yl)quinolin-5-yl]-2H-1,2,3-triazol-2-yl}-1-(methylsulfonyl)azetidin-3-yl]acetonitrile] | 69 nM | > 10000 nM | 244 nM | 2840 nM | – | – | – | – |
| Cc1ccc(-c2cc3ncccc3c(-c3ccn(C4(CC#N)CN(S(C)(=O)=O)C4)n3)n2)cn1 [Example 175, [3-{3-[7-(6-methylpyridin-3-yl)-1,6-naphthyridin-5-yl]-1H-pyrazol-1-yl}-1-(methylsulfonyl)azetidin-3-yl]acetonitrile] | 135 nM | > 10000 nM | 1180 nM | 5740 nM | – | – | – | – |
| Cn1cc(-c2cc3ncccc3c(-c3ccn(C4(CC#N)CN(CC(F)(F)F)C4)n3)n2)ccc1=O [Example 249, [3-{3-[7-(1-methyl-6-oxo-1,6-dihydropyridin-3-yl)-1,6-naphthyridin-5-yl]-1H-pyrazol-1-yl}-1-(2,2,2-trifluoroethyl)azetidin-3-yl]acetonitrile] | 178 nM | > 10000 nM | 1150 nM | 1080 nM | – | – | – | – |

Further compounds by falling IC50 (TYK2), results first:

| IC50 (TYK2) | IC50 (JAK3) | IC50 (JAK2) | IC50 (JAK1) | IC50 (TYK2; JAK Caliper enzyme assay) | IC50 (JAK3; JAK Caliper enzyme assay) | IC50 (JAK2; JAK Caliper enzyme assay) | IC50 (JAK1; JAK Caliper enzyme assay) | SMILES |
| --- | --- | --- | --- | --- | --- | --- | --- | --- |
| 61 nM | > 10000 nM | 891 nM | 834 nM | – | – | – | – | N#CC[C@H]1C[C@](CC#N)(n2ccc(-c3nc(-c4ccn[nH]4)cc4ncccc34)n2)C1 [Example 22, 2,2′-(trans-1-{3-[7-(1H-pyrazol-5-yl)-1,6-naphthyridin-5-yl]-1H-pyrazol-1-yl}cyclobutane-1,3-diyl)diacetonitrile] |
| 55 nM | > 10000 nM | 596 nM | 1310 nM | – | – | – | – | N#CC[C@]1(n2ccc(-c3nc(-c4ccc(N)cn4)cc4ncccc34)n2)C[C@@H](C#N)C1 [Example 190, cis-3-{3-[7-(5-aminopyridin-2-yl)-1,6-naphthyridin-5-yl]-1H-pyrazol-1-yl}-3-(cyanomethyl)cyclobutanecarbonitrile] |
| 45 nM | > 10000 nM | 509 nM | 1910 nM | – | – | – | – | CO[C@H]1C[C@@](CC#N)(n2ccc(-c3nc(-c4cc(CO)n[nH]4)cc4ncccc34)n2)C1 [Example 51, [cis-1-(3-{7-[3-(hydroxymethyl)-1H-pyrazol-5-yl]-1,6-naphthyridin-5-yl}-1H-pyrazol-1-yl)-3-methoxycyclobutyl]acetonitrile] |
| 37 nM | > 10000 nM | 688 nM | 656 nM | – | – | – | – | N#CCC1(n2ccc(-c3nc(-c4ccnc(N)c4)cc4ncccc34)n2)CN(CC(F)(F)F)C1 [Example 197] |
| 25 nM | 5470 nM | 79 nM | 486 nM | – | – | – | – | Cn1ccc(-c2cc(-c3cnn([C@]4(CC#N)C[C@H](C#N)C4)n3)c3cccnc3c2)n1 [Example 313, cis-3-(cyanomethyl)-3-{4-[7-(1-methyl-1H-pyrazol-3-yl)quinolin-5-yl]-2H-1,2,3-triazol-2-yl}cyclobutanecarbonitrile] |
| 24 nM | > 10000 nM | 243 nM | 1010 nM | – | – | – | – | Cn1cc(-c2cc3ncccc3c(-c3ccn(C4(CC#N)CN(S(=O)(=O)C5CC5)C4)n3)n2)cn1 [Example 107, [1-(cyclopropylsulfonyl)-3-{3-[7-(1-methyl-1H-pyrazol-4-yl)-1,6-naphthyridin-5-yl]-1H-pyrazol-1-yl}azetidin-3-yl]acetonitrile] |
| 23 nM | > 10000 nM | 123 nM | 1080 nM | – | – | – | – | N#CCC1(n2ncc(-c3cc(-c4ccccn4)cc4ncccc34)n2)CC(C#N)C1 (stereo not drawn) [Example 346, cis-3-(cyanomethyl)-3-{4-[7-(pyridin-2-yl)quinolin-5-yl]-2H-1,2,3-triazol-2-yl}cyclobutanecarbonitrile] |
| 17 nM | > 10000 nM | 195 nM | 338 nM | – | – | – | – | N#CCC1(n2ncc(-c3cc(-c4ccn[nH]4)cc4ncccc34)n2)CN(S(=O)(=O)C2COC2)C1 [Example 301, [1-(oxetan-3-ylsulfonyl)-3-{4-[7-(1H-pyrazol-5-yl)quinolin-5-yl]-2H-1,2,3-triazol-2-yl}azetidin-3-yl]acetonitrile] |
| 13 nM | 6700 nM | 69 nM | 321 nM | – | – | – | – | N#CC[C@]1(n2ncc(-c3cc(-c4ccc(N)cn4)cc4ncccc34)n2)C[C@@H](C#N)C1 [Example 359, cis-3-{4-[7-(5-aminopyridin-2-yl)quinolin-5-yl]-2H-1,2,3-triazol-2-yl}-3-(cyanomethyl)cyclobutanecarbonitrile] |
| 5 nM | 3100 nM | 29 nM | 81 nM | – | – | – | – | N#CC[C@]1(n2ncc(-c3cc(-c4cc[nH]n4)cc4ncccc34)n2)C[C@@H](C#N)C1 [Example 303, cis-3-(cyanomethyl)-3-{4-[7-(1H-pyrazol-3-yl)quinolin-5-yl]-2H-1,2,3-triazol-2-yl}cyclobutanecarbonitrile] |
